Measurements as given in patent US20230263822A1, “MODULATION OF FACTOR 11 EXPRESSION” (Ionis Pharmaceuticals, Inc., priority 2008, published 2023).
Strand notation (5' to 3'): a small letter for the sugar, then the base; units joined by * are phosphorothioate-linked, units joined directly phosphodiester-linked; [ ] holds rarer units or linkages, { } end groups; capitals alone tell only the bases. e = 2'-O-(2-methoxyethyl) (MOE); [5mC] = 5-methylcytosine; d = 2'-deoxy (DNA)

Assays:
Assay type in all cases: cell-based
[1] = tested on: human Factor 11 mRNA; test: Antisense inhibition of human Factor 11 in HepG2 cells, lipofectin, 75 nM (Example 1); conditions: 75 nM antisense oligonucleotide, ~24 h, relative to untreated control cells
Experimental: Antisense oligonucleotides targeted to a Factor 11 nucleic acid were tested for their effects on Factor 11 mRNA in vitro. Cultured HepG2 cells at a density of 10,000 cells per well were transfected using lipofectin reagent with 75 nM antisense oligonucleotide. After a treatment period of approximately 24 hours, RNA was isolated from the cells and Factor 11 mRNA levels were measured by quantitative real time PCR. Factor 11 mRNA levels were adjusted according to total RNA content, as measured by RIBOGREEN. Results are presented as percent inhibition of Factor 11, relative to untreated control cells.
The chimeric antisense oligonucleotides in Tables 1 and 2 were designed as 5-10-5 MOE gapmers. The gapmers are 20 nucleotides in length, wherein the central gap segment is comprised of 10 2′-deoxynucleotides and is flanked on both sides (in the 5′ and 3′ directions) by wings comprising 5 nucleotides each. Each nucleotide in the 5′ wing segment and each nucleotide in the 3′ wing segment has a 2′-MOE modification. The internucleoside linkages throughout each gapmer are phosphorothioate (P=S) linkages. All cytidine residues throughout each gapmer are 5-methylcytidines. “Target start site” indicates the 5′-most nucleotide to which the gapmer is targeted. “Target stop site” indicates the 3′-most nucleotide to which the gapmer is targeted. Each gapmer listed in Table 1 is targeted to SEQ TD NO: 1 (GENBANK Accession No. NM_000128.3) and each gapmer listed in Table 2 is targeted to SEQ TD NO: 2 (GENBANK Accession No. NT_022792.17, truncated from 19598000 to 19624000).

[2] = tested on: human Factor 11 mRNA; test: Dose-dependent inhibition of human Factor 11 in HepG2 cells, lipofectin 9.375-75 nM (Example 4)
Experimental: (§1) Cells were plated at a density of 10,000 cells per well and transfected using lipofectin reagent with 9.375 nM, 18.75 nM, 37.5 nM and 75 nM concentrations of antisense oligonucleotide, as specified in Table 9. After a treatment period of approximately 16 hours, RNA was isolated from the cells and Factor 11 mRNA levels were measured by quantitative real-time PCR. Human Factor 11 primer probe set RTS 2966 was used to measure mRNA levels. Factor 11 mRNA levels were adjusted according to total RNA content, as measured by RIBOGREEN. Results are presented as percent inhibition of Factor 11, relative to untreated control cells.

[3] = tested on: human Factor 11 mRNA; test: Dose-dependent inhibition of human Factor 11 in HepG2 cells, electroporation 0.7-20 uM (Example 4)
Experimental: as §1, with “The gapmers were also transfected via electroporation and their dose dependent inhibition of human Factor 11 mRNA was measured. Cells” for “Cells”, “20,000” for “10,000”, “via electroporation” for “using lipofectin reagent”, “0.7 μM, 2.2 μM, 6.7 μM,” for “9.375 nM, 18.75 nM, 37.5 nM”, “20 μM” for “75 nM”, “10.” for “9.”

[4] = tested on: human Factor 11 mRNA; test: Antisense inhibition of human Factor 11 in HepG2 cells by microwalk gapmers, lipofectin, 75 nM (Example 3); conditions: HepG2 cells, lipofectin, gapmers targeted to nucleobases 1275 to 1318 of SEQ ID NO: 1
Procedure, shortened: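 HepG2 cells (10,000/well) were transfected via lipofectin with 75 nM 20-mer MOE gapmers (phosphorothioate, 5-methyl-C) for about 24 h. Factor 11 mRNA was measured by qRT-PCR, normalized to RIBOGREEN total RNA, and given as percent inhibition versus untreated cells.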

[5] = gapmers targeted to SEQ ID NO: 1
[6] = gapmers targeted to SEQ ID NO: 2

Substance | % inhibition [1, 5] [%] | other results
412235 (antisense eA*eT*eA*eT*e[5mC]*d[5mC]*dA*d[5mC]*dT*dG*dG*dT*dT*dT*d[5mC]*e[5mC]*eA*eA*eT*eG) [compound 412235] | 57 | –
413525 (antisense eG*eT*eA*eT*eA*dA*dA*dT*dG*dT*dG*dT*d[5mC]*dA*dA*eA*eT*eT*eA*eA) [compound 413525] | – | % inhibition [1, 6]: 43%
413486 (antisense eG*eG*e[5mC]*eT*eT*dG*dA*dT*dT*dT*dT*dG*dG*dT*dG*eG*eT*eA*e[5mC]*eA) [compound 413486] | 83 | –
413472 (antisense eT*eG*eG*eG*eT*dG*dT*dG*d[5mC]*dT*dT*d[5mC]*dA*dG*dT*eA*eG*eA*e[5mC]*eA) [compound 413472] | 99 | –
413498 (antisense eG*e[5mC]*eA*eG*eA*dG*dT*dG*dT*dA*dG*dA*dT*dT*d[5mC]*e[5mC]*eT*eG*e[5mC]*eA) [compound 413498] | 60 | –
413535 (antisense eG*eT*e[5mC]*eA*e[5mC]*dA*dT*dT*dT*dA*dA*dA*dA*dT*dT*eT*e[5mC]*e[5mC]*eA*eA) [compound 413535] | – | % inhibition [1, 6]: 41%
413527 (antisense e[5mC]*e[5mC]*eA*eT*eA*dA*dT*dG*dA*dA*dG*dA*dA*dG*dG*eA*eA*eG*eG*eG) [compound 413527] | – | % inhibition [1, 6]: 52%
413479 (antisense eT*eG*eT*e[5mC]*eA*dT*dG*dG*dT*dA*dA*dA*dA*dT*dG*eA*eA*eG*eA*eA) [compound 413479] | 40 | –
412262 (antisense eA*eA*eT*eG*eA*dG*dA*dT*dA*dA*dA*dT*dA*dT*dT*eT*eG*e[5mC]*eA*e[5mC]) [compound 412262] | 34 | –
412208 (antisense eA*eG*eA*e[5mC]*eA*dA*dA*dT*dG*dT*dT*dA*d[5mC]*dG*dA*eT*eG*e[5mC]*eT*e[5mC]) [compound 412208] | 73 | –
413483 (antisense eA*eA*e[5mC]*eT*eG*dG*d[5mC]*dA*dG*d[5mC]*dG*dG*dA*d[5mC]*dG*eG*e[5mC]*eA*eT*eT) [compound 413483] | 78 | –
412260 (antisense e[5mC]*eA*e[5mC]*eA*eA*dA*dT*d[5mC]*dA*dT*dT*dT*dT*dT*d[5mC]*eA*eG*eG*eA*eA) [compound 412260] | 27 | –
412256 (antisense eA*eA*e[5mC]*eA*eA*dA*dT*d[5mC]*dT*dA*dT*dT*dT*dA*dT*eG*eG*eT*eG*eG) [compound 412256] | 39 | –
412209 (antisense eG*eT*eG*e[5mC]*eT*dT*d[5mC]*dA*dG*dT*dA*dG*dA*d[5mC]*dA*eA*eA*eT*eG*eT) [compound 412209] | 91 | –
412264 (antisense e[5mC]*eA*e[5mC]*eA*e[5mC]*dT*dT*dG*dA*dT*dG*dA*dA*dT*dT*eG*eT*eA*eT*eA) [compound 412264] | 27 | –
412207 (antisense e[5mC]*eG*eT*eG*eA*dA*dA*dA*dA*dG*dT*dG*dG*d[5mC]*dA*eG*eT*eG*eG*eA) [compound 412207] | 64 | –
412242 (antisense eA*eA*e[5mC]*eA*eA*dG*dG*d[5mC]*dA*dA*dT*dA*dT*d[5mC]*dA*eT*eA*e[5mC]*e[5mC]*e[5mC]) [compound 412242] | 49 | –
412194 (antisense eT*eG*e[5mC]*eA*eA*dT*dT*d[5mC]*dT*dT*dA*dA*dT*dA*dA*eG*eG*eG*eT*eG) [compound 412194] | 80 | –

Substance | % inhibition [1, 5] [%] | other results
413530 (antisense eA*eT*e[5mC]*eT*eT*dG*dT*dA*dA*dT*dT*dA*d[5mC]*dA*d[5mC]*eA*e[5mC]*e[5mC]*e[5mC]*e[5mC]) [compound 413530] | – | % inhibition [1, 6]: 27%
412244 (antisense eG*eA*eA*eG*eG*d[5mC]*dA*dG*dG*d[5mC]*dA*dT*dA*dT*dG*eG*eG*eT*e[5mC]*eG) [compound 412244] | 53 | –
412189 (antisense eA*eA*eA*eT*eA*dT*dA*d[5mC]*d[5mC]*dT*dT*dG*dA*dG*dA*eG*eA*eA*eT*eT) [compound 412189] | 8 | –
412243 (antisense eT*eT*e[5mC]*e[5mC]*eA*dG*dT*dT*dT*d[5mC]*dA*dA*d[5mC]*dA*dA*eG*eG*e[5mC]*eA*eA) [compound 412243] | 70 | –
412254 (antisense eT*eA*eT*e[5mC]*eT*dG*d[5mC]*d[5mC]*dT*dA*dT*dA*dT*dA*dG*eT*eA*eA*eT*e[5mC]) [compound 412254] | 16 | –
413471 (antisense eT*e[5mC]*eA*eG*eT*dA*dG*dA*d[5mC]*dA*dA*dA*dT*dG*dT*eT*eA*e[5mC]*eG*eA) [compound 413471] | 67 | –
412239 (antisense eT*eT*e[5mC]*eA*eG*dA*dT*dT*dG*dA*dT*dT*dT*dA*dA*eA*eA*eT*eG*e[5mC]) [compound 412239] | 43 | –
413504 (antisense eG*eG*e[5mC]*eT*eT*dG*dT*dG*dT*dG*dT*dG*dG*dT*d[5mC]*eA*eA*eT*eA*eT) [compound 413504] | – | % inhibition [1, 6]: 54%
412211 (antisense eG*eA*eT*eT*eA*dG*dA*dA*dA*dG*dT*dG*d[5mC]*dA*d[5mC]*eA*eG*eG*eA*eT) [compound 412211] | 64 | –
413506 (antisense eA*eT*eG*eG*eA*dA*dT*dT*dG*dT*dG*d[5mC]*dT*dT*dA*eT*eG*eA*eG*eT) [compound 413506] | – | % inhibition [1, 6]: 57%
412214 (antisense eT*e[5mC]*e[5mC]*eT*eG*dG*dG*dA*dA*dA*dA*dG*dA*dA*dG*eG*eT*eA*eA*eA) [compound 412214] | 58 | –
412251 (antisense e[5mC]*eT*eA*eG*e[5mC]*dA*dT*dT*dT*dT*d[5mC]*dT*dT*dA*d[5mC]*eA*eA*eA*e[5mC]*eA) [compound 412251] | 58 | –
413508 (antisense eG*eT*eT*eG*eG*dT*dA*dA*dA*dA*dT*dG*d[5mC]*dA*dA*e[5mC]*e[5mC]*eA*eA*eA) [compound 413508] | – | % inhibition [1, 6]: 64%
413520 (antisense eG*e[5mC]*eT*e[5mC]*eT*dG*dA*dG*dA*dG*dT*dT*d[5mC]*d[5mC]*dA*eA*eT*eT*e[5mC]*eA) [compound 413520] | – | % inhibition [1, 6]: 52%
412246 (antisense eA*eG*eA*eT*e[5mC]*dA*dT*d[5mC]*dT*dT*dA*dT*dG*dG*dG*eT*eT*eA*eT*eT) [compound 412246] | 68 | –
412232 (antisense eG*eG*e[5mC]*e[5mC]*eA*d[5mC]*dT*d[5mC]*dA*d[5mC]*d[5mC]*dA*d[5mC]*dG*dA*eA*e[5mC]*eA*eG*eA) [compound 412232] | 80 | –
413500 (antisense eG*eT*eG*eA*eG*dA*d[5mC]*dA*dA*dA*dT*d[5mC]*dA*dA*dG*eA*e[5mC]*eT*eT*e[5mC]) [compound 413500] | – | % inhibition [1, 6]: 15%
416926 (antisense eT*eG*eG*dT*dG*d[5mC]*dA*d[5mC]*dA*dG*dT*dT*dT*d[5mC]*dT*dG*dG*e[5mC]*eA*eG) [compound 416926] | – | IC50 [2]: 22 nM; percent inhibition of Factor 11 at 9.375 nM ([2]; 9.375 nM, relative to untreated control cells): 31%; percent inhibition of Factor 11 at 18.75 nM ([2]; 18.75 nM, relative to untreated control cells): 43%; percent inhibition of Factor 11 at 37.5 nM ([2]; 37.5 nM, relative to untreated control cells): 63%; percent inhibition of Factor 11 at 75 nM ([2]; 75 nM, relative to untreated control cells): 82%; IC50 [3]: 600 nM; percent inhibition of Factor 11 at 0.7 μM ([3]; 0.7 μM, relative to untreated control cells): 47%; percent inhibition of Factor 11 at 2.2 μM ([3]; 2.2 μM, relative to untreated control cells): 71%; percent inhibition of Factor 11 at 6.7 μM ([3]; 6.7 μM, relative to untreated control cells): 91%; percent inhibition of Factor 11 at 20 μM ([3]; 20 μM, relative to untreated control cells): 94%; % inhibition [4]: 93%
